Assay results published in patent US20030003086A1, “Modulation of MHC class I antigen presentation” (priority 2001, published 2003).

Legend:
pure PSA = pure PSA (Homo sapiens, UniProt P55786); test: Degradation of FAPGNYPAL by pure PSA; format: biochemical; conditions: PSA at concentrations similar to those found in HeLa cells
TOP [1] = target: T1, TOP (Homo sapiens, UniProt P52888); test: Generation of SIINFEKL+Kb complexes in Kb-Cos7 cells loaded with ovalbumin and TOP inhibitor by hypertonic lysis of pinosomes (25D1 staining, flow cytometry); format: cell-based; conditions: cells transfected with TOP
T1 construct: was introduced into pTracer-transfected Kb-Cos7 cells; endogenous in cells; host or cells: Kb-Cos7 cells transfected with pTracer (GFP) only
T1 sequence (P52888 whole entry): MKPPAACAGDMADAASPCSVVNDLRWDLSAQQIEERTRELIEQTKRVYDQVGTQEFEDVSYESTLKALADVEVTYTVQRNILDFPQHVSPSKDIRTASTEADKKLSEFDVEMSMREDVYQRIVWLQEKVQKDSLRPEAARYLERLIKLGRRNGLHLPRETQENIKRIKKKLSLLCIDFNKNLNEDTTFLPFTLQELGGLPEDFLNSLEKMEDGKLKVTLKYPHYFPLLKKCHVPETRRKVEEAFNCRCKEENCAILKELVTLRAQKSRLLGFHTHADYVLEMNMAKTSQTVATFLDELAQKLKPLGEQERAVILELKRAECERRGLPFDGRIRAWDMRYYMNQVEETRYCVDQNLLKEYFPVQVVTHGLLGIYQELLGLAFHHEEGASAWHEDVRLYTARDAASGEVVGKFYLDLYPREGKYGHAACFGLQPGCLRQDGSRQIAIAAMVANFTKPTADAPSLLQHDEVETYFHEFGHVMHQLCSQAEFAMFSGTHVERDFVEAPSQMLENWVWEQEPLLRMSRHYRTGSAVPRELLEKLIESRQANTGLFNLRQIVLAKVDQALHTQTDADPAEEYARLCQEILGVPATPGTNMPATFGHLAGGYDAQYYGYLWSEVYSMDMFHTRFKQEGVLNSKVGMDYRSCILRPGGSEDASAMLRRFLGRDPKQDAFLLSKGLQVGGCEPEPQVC
Description: (§1) To test whether TOP can influence antigen presentation, the effects of transiently overexpressing TOP in vivo on the presentation of SIINFEKL (SEQ ID NO:5) peptide produced in the cytoplasm from a synthetic minigene were studied. In one set of experiments, expression vectors encoding TOP and SIINFEKL were transiently co-transfected into Kbexpressing COS7 cells. The presentation of SIINFEKL on MHC class I Kb molecules was detected by staining with a SIlNFEKL+Kb-specific monoclonal antibody (25D1) (Porgador et al., 1997, Immunity. 6:715-726) and quantified by flow cytometry. Briefly, Kb-Cos7 cells were co-transfected with a SIINFEKL minigene in pCDNA3 and a pTracer plasmid encoding green fluorescence protein (GFP), GFP+human TOP or GFP+ORP 150 (a control protein) using FuGENE™ (Roche Applied Science). After 48 hours, the cells were stained with an anti-SIINFEKL+Kb specific nAb (25D1) (Porgador et al., 1997, supra) followed by pbycoerythrin-conjugated anti-immunoglobulin antibody and fluorescence was measured by flow fluorocytometry. […]
(§2) The data of FIG. 3C were generated in experiments in which ovalbumin (40 mg/ml) admixed with either the TOP inhibitor cPP-AAF-pAB (1 mM) or vehicle (DMSO) was introduced into pTracer-transfected Kb-Cos7 cells. After two hours the presence of SIINFEKL+Kb complexes was determined by immunofluorescence as described for FIG. 1A (supra). […]

TOP [2] = test: as above; format: cell-based; conditions: Kb-Cos7 cells not overexpressing TOP; ovalbumin 40 mg/ml, inhibitor 1 mM, two hours; FIG. 3C
Description: as §1, §2

living cells = conditions: cited from earlier work

Chain of pure PSA (P55786 whole entry): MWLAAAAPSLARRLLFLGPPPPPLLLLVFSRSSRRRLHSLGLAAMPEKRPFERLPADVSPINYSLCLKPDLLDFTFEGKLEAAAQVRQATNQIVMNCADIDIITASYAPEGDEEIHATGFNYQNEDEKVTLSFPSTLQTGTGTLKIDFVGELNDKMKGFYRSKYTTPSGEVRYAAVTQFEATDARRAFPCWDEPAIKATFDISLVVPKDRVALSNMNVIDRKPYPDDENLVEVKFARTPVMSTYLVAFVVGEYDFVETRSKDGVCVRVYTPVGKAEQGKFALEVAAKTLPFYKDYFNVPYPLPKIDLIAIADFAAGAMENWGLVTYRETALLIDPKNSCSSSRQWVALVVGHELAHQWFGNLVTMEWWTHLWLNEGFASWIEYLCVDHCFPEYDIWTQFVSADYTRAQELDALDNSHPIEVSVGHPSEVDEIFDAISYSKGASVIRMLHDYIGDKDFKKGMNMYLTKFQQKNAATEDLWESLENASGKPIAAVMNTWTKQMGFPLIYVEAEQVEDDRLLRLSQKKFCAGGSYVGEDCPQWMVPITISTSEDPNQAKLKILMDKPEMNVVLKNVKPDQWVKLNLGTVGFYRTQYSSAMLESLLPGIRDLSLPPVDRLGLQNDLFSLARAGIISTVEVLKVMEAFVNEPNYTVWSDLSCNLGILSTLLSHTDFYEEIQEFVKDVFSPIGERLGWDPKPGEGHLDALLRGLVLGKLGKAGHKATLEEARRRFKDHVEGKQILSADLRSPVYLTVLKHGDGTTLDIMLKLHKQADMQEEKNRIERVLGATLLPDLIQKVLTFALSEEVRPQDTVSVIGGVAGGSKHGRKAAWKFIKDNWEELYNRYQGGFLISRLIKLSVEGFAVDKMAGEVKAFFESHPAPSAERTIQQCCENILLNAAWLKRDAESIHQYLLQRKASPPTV

Substance	susceptibility to degradation by pure PSA (pure PSA)	generation of SIINFEKL-Kb complexes (MHC class I presentation) (TOP [1])	generation of SIINFEKL-Kb complexes (MHC class I presentation) (TOP [2])	entry into living cells / cell cytosol (living cells)
FAPGNYPAL [antigenic peptide, Sendai Virus NP, residues 324-332]	particularly susceptible to degradation			
N-(1(RS)-carboxy-3-phenylpropyl)-Ala-Ala-Tyr-p-aminobenzoate [cPP-AAF-PAB]		enhanced	enhanced	does not enter living cells
